Source: patent US20200016188A1, “MODIFICATION OF THE PH AND OTHER PHYSICAL PROPERTIES OF NICOTINAMIDE ADENINE DINUCLEOTIDE (OXIDIZED FORM) TO ALLOW FOR ENHANCED STABILITY AND MULTIPLE DELIVERY SYSTEMS” (priority 2018, published 2020)
Entries after “also recorded” stand apart in the source; their conditions may differ. Where two headings read alike, the source gives them in different places.

Key:
[1] = pH testing of test substances (pH strips, probe and meter); assay type: physicochemical
Description: PH testing was done by using both pH testing strips and a probe and meter for each test substance to determine its pH. Each test substance was dissolved in 150 ml distilled water then tested for its pH value. Where the test substance could not be tested because it was not water soluble, an art-recognized pH was used.
PH testing was done by using both ph testing strips and a probe and meter for each test substance to determine its pH. Each test substance was dissolved in 150 ml distilled water then tested for its pH value.

[2] = not tested, cited from earlier work; for (pH): Table 6, too viscous
[3] = Two-week stability of compressed lozenge of NAD+ with a test substance, HPLC UV; settings: for Observation when the composition was made: NAD+ with test substance, HPLC data could not be obtained
Description: Preparations of nicotinamide adenine dinucleotide (oxidized form) were compounded. A compressed lozenge was created including 100 mg nicotinamide adenine dinucleotide (oxidized form) and 100 mg of a test substance. The powders were compressed in a tablet mold and released. Each test tablet was then placed in a white 75cc HDPE container that was sealed and removed from UV light for two weeks at room temperature.
After a two week period, the compositions were tested by performing an HPLC UV.

[4] = cited from earlier work
[5] = anhydrous NAD+ with test substance, two weeks, HPLC UV versus NAD+ control
[6] = Table 5, test substance dissolved in 150 ml distilled water

OC[C@@H](O)[C@@H](O)[C@H](O)[C@@H](O)CO [70% Sorbitol, Sorbitol]
(pH) Value ([1]; summary of Table 6): neutral | (pH) [2]: (pH) neutral

CCCCCCCCCCCCCCCC(=O)OC[C@H](O)[C@H]1OC(=O)C(O)=C1O [Ascorbyl palmitate]
pH range ([2]; Table 5, not water soluble, art-recognized pH): (pH) range 6.8-7.2

OCc1ccccc1 [Benzyl alcohol]
(pH) Value ([1]; Table 6, test substance in 150 ml distilled water): 6.9 | (pH) Value ([1]; summary of Table 6): neutral

O=P([O-])([O-])O.[Ca+2] [Calcium Phosphate Dibasic, Calcium phosphate dibasic]
Degradation of NAD+ when formulated with the test substance by itself (words) [3, 5]: did not degrade the NAD+; also recorded: little to no degradation; also recorded: do not degrade NAD+ | Degradation of NAD+ when formulated with the test substance by itself (words) ([3]; anhydrous NAD+ with test substance, two weeks, HPLC UV versus NAD+ control, listed as CaHPO4): deemed effective | (pH) Value [1, 6]: 8.5

OC[C@@H](O)[C@@H](O)CO [Erythitol, Erythritol]
(pH) Value [1, 6]: 6.3

OCC(O)CO [Glycerin]
(pH) Value ([1]; summary of Table 6): neutral | (pH) [2]: (pH) neutral

[Mg+2].[OH-].[OH-] [Magnesium Hydroxide Mg(OH)2, Magnesium hydroxide]
Degradation of NAD+ when formulated with the test substance by itself (words) ([3]; anhydrous NAD+ with test substance, two weeks, HPLC UV versus NAD+ control, listed as Mg(OH)2): deemed effective | Degradation of NAD+ when formulated with the test substance by itself (words) ([3]; anhydrous NAD+ with test substance, two weeks, HPLC UV versus NAD+ control, listed as magnesium hydroxide): do not degrade NAD+; also recorded: provided for stable compositions of NAD+

[O]=[Mg] [Magnesium Oxide MgO, Magnesium oxide]
Degradation of NAD+ when formulated with the test substance by itself (words) [3, 5]: cause degradation of the NAD+ | (pH) Value [1, 6]: 9.1

O=C([O-])[O-].[Mg+2] [Magnesium carbonate MgCO2, Magnesium carbonate]
Degradation of NAD+ when formulated with the test substance by itself (words) [3, 5]: did not degrade the NAD+; also recorded: little to no degradation; also recorded: do not degrade NAD+

OC[C@@H](O)[C@@H](O)[C@H](O)[C@H](O)CO [Mannitol]
(pH) Value [1, 6]: 6.7

NC(=O)c1ccc[n+]([C@@H]2O[C@H](COP(=O)([O-])OP(=O)(O)OC[C@H]3O[C@@H](n4cnc5c(N)ncnc54)[C@H](O)[C@@H]3O)[C@@H](O)[C@H]2O)c1 [NAD+, nicotinamide adenine dinucleotide (oxidized form)]
Time NAD+ can be stable ([4]; aqueous solutions between pH 2-6, stored at −70° C.): up to 6 months | Time NAD+ is stable ([4]; fairly neutral aqueous solutions at 0° C.): up to 2 weeks | Time the stability of NAD+ will last ([4]; neutral or slightly acidic solutions stored at zero degrees Fahrenheit): up to 2 weeks

O=C([O-])O.[K+] [Potassium Bicarbonate K2CO2, Potassium bicarbonate]
Degradation of NAD+ when formulated with the test substance by itself (words) [3, 5]: cause degradation of the NAD+

[K+].[OH-] [Potassium Hydroxide KOH, Potassium hydroxide]
Observation when the composition was made [3]: bubbled, liquefied, turned yellow, and created heat | Degradation of NAD+ when formulated with the test substance by itself (words) [3, 5]: cause degradation of the NAD+

O=C([O-])O.[Na+] [Sodium Bicarbonate Na2CO2, Sodium bicarbonate]
Degradation of NAD+ when formulated with the test substance by itself (words) [3, 5]: showed degradation shortly after creation of the lozenge tablet; also recorded: cause degradation of the NAD+

[Cl-].[Na+] [Sodium Chloride NaCl, Sodium chloride]
Degradation of NAD+ when formulated with the test substance by itself (words) [3, 5]: positive results; also recorded: do not degrade NAD+

O=C1O[C@H]([C@@H](O)CO)C([O-])=C1O.[Na+] [Sodium ascorbate]
Degradation of NAD+ when formulated with the test substance by itself (words) [3, 5]: positive results | Degradation of NAD+ when formulated with the test substance by itself (words) ([3]; anhydrous NAD+ with test substance, two weeks, HPLC UV versus NAD+ control, listed as sodium ascorbate): do not degrade NAD+

CCCCCCCCCCCCCCCCCC(=O)O [Stearic acid]
Degradation of NAD+ when formulated with the test substance by itself (words) [3]: cause degradation of the NAD+

CC(=O)Oc1c(C)c(C)c2c(c1C)CCC(C)(CCC[C@H](C)CCC[C@H](C)CCCC(C)C)O2 (some centres unmarked) [Tocopherol acetates, Tocopherol acetate]
(pH) Value ([1]; summary of Table 6): neutral | (pH) [2]: (pH) neutral

OC[C@@H](O)[C@H](O)[C@@H](O)CO [Xylitol]
(pH) Value [1, 6]: 6.5

Magnesium stearate
Degradation of NAD+ when formulated with the test substance by itself (words) [3, 5]: cause degradation of the NAD+

Polysorbate 80
(pH) Value ([1]; summary of Table 6): neutral | (pH) [2]: (pH) neutral

Sodium hydroxide [Sodium Hydroxide NaOH]
Observation when the composition was made [3]: bubbled, liquefied, turned yellow, and created heat
